Legend:
Format in all cases: in vivo, mouse
[1] = system: 7-week-old female C57BL/6N mice; assay: Evaluation of a bone mass increase with PTH (GST-RANKL, ovariectomy); conditions: for femur bone density decrease vs PBS+Sham: GST-RANKL+Sham
Description: GST-RANKL was administered twice to groups of 7-week-old female C57BL/6N mice at 1 mg/kg every 24 hours. Ovariectomy was performed 24 hours after the 2nd administration. In addition, parathyroid hormone (PTH) was subcutaneously administered thereto at 160 μg/kg from 24 hours after the ovariectomy for 10 consecutive days. Further, a group obtained by PBS administration and sham operation (Sham) was designated as a control group for comparison. The serum markers and the femur bone density were measured.

[2] = system: GST-RANKL-administered 7-week-old female C57BL/6N mice; assay: Evaluation of an osteoporosis therapeutic agent (risedronate) with GST-RANKL-administered mice
Description: GST-RANKL (426 nmol) was intraperitoneally administered 3 times to groups of 7-week-old female C57BL/6N mice (5 to 6 individuals each) every 24 hours. An osteoporosis therapeutic agent (risedronate) was subcutaneously administered at 0.01 mg/kg every 24 hours from 3 days before GST-RANKL administration. Administration of the agent was continued to the end of the experimentation every 24 hours. The serum, femur, and tibia were collected from each mouse 1.5 hours after the 3rd administration of GST-RANKL. Bone resorption parameters (calcium, CTx, and TRAP-5b) and osteogenesis parameters (osteocalcin and ALP) in the serum were measured. The femur bone density was determined with the use of pQCT and micro CT. Measurement values were compared with those for a control group by the Dunnett method for testing.

[3] = system: GST-RANKL-administered, ovariectomized 7-week-old female C57BL/6N mice; assay: Drug evaluation with a selective estrogen receptor modulator (raloxifene) in GST-RANKL/OVX mice
Text: In addition, PBS (i.p.) and ultrapure water (p.o.) were used as control substances for comparison with GST-RANKL and raloxifene, respectively, upon administration.
The serum collected from each mouse was subjected to measurement of serum bone resorption markers (Ca and TRAP-5b) and an osteogenesis marker (ALP). Each femur was subjected to measurement of the bone density, the bone mineral content, and the cortical bone thickness with pQCT at points 0.6, 0.8, 1.0 mm from the distal growth plate on the proximal side. In addition, image analysis was carried out with micro CT.

[4] = system: 7-week-old female ICR mice; assay: Evaluation of mice of the other lineages (ICR)
Description: GST-RANKL was intraperitoneally administered 3 times to groups of 7-week-old female ICR mice at 1 mg/kg every 24 hours. The femur and serum were collected from each mouse 1.5 hours after the 3rd administration and compared with those of the PBS administration group. Regarding bone metabolism markers, TRAP-5b, calcium (Ca), and alkaline phosphatase (ALP) in the serum were measured. Each femur was subjected to bone density measurement with pQCT and image analysis with micro CT.

[5] = system: GST-RANKL-administered 7-week-old female C57BL/6N mice; assay: Evaluation of a bone mass increase with low-dose PTH in GST-RANKL mice; conditions: GST-RANKL 1 mg/kg i.p. 2 times
Description: GST-RANKL was intraperitoneally administered 2 times to groups of 7-week-old female C57BL/6N mice at 1 mg/kg every 24 hours. PTH was subcutaneously administered thereto at 40 or 80 μg/kg from 24 hours after the 2nd administration every 24 hours for 10 consecutive days. In addition, PBS was administered to a group serving as the control group for the GST-RANKL and PTH administration groups for comparison. The serum and femur were collected from each mouse 24 hours after the end of administration for 10 days.
The serum collected from each mouse was subjected to measurement of serum bone resorption markers (Ca and TRAP-5b) and an osteogenesis marker (ALP). Each femur was subjected to measurement of the total bone density, the cortical bone density, the cortical bone thickness, the cortical bone mineral content, and the cortical bone density in the diaphysis with pQCT at points 0.6, 0.8, and 1.0 mm […] the distal growth plate on the proximal side. In addition, image analysis was carried out with micro CT.

[6] = system: 12-week-old male and female C57BL/6N mice; assay: GST-RANKL administration to 12-week-old mice
Description: GST-RANKL was intraperitoneally administered 3 times to 12-week-old male and female C57BL/6N mice at 1 mg/kg every 24 hours. The serum and femur were collected from each mouse 1.5 hours after the 3rd administration. The serum collected from each mouse was subjected to measurement of serum bone resorption markers (Ca and TRAP-5b) and an osteogenesis marker (ALP). Each femur was subjected to bone density measurement by dual energy X-ray absorptiometry (DEXA) and image analysis with micro CT.

[7] = system: 7-week-old female C57BL/6 mice; assay: Administration of GST-RANKL for 7 consecutive days
Description: GST-RANKL was intraperitoneally administered to groups of 7-week-old female C57BL/6 mice at 2 mg/kg/day for 7 consecutive days. The serum and femur were collected from each mouse 1.5 hours after the 7th administration. The serum and femur obtained from each mouse were subjected to measurement of serum markers and bone density measurement with pQCT, respectively.

[8] = GST-RANKL 426 nmol i.p. 3 times
[9] = GST-RANKL administration+OVX group, 1.0 mm
[10] = 12-week-old male, no significant difference

## GST-RANKL: fused protein of Glutathione S-transferase with human RANKL residues 140-317, expressed in Escherichia coli, 47.0 kDa
[1]; GST-RANKL+OVX group
  femur bone density vs PBS+Sham: No bone density decrease was observed
[1]; 0.6 mm
  femur bone density decrease vs PBS+Sham: approximately 17%
[1]; 0.8 mm
  femur bone density decrease vs PBS+Sham: ~15%
[1]; 1.0 mm
  femur bone density decrease vs PBS+Sham: ~18%
[1]; every GST-RANKL administration group
  serum Ca concentration: no changes
[1]; every GST-RANKL administration group, 1 mg/kg twice
  serum ALP concentration decrease: approximately 24%
[2]; GST-RANKL 426 nmol
  serum alkaline phosphatase concentration vs control: did not change
  serum osteocalcin concentration vs control: did not change
[2]; [8]
  serum CTx concentration, fold as high as control: approximately 1.4 fold
  serum TRAP-5b concentration, fold as high as control: approximately 1.5 fold
[2]; GST-RANKL 426 nmol, at 0.6 mm, 0.8 mm and 1.0 mm
  femur bone density decrease vs control: approximately 20%
[3]; GST-RANKL administration+OVX group
  serum ALP concentration vs PBS+Sham group: tended to increase
[3]; [9]
  cortical bone mineral content decrease vs PBS+Sham group: 49%
  cortical bone thickness decrease vs PBS+Sham group: 49%
[3]; GST-RANKL administration+OVX group, no significant difference
  total bone density vs PBS+Sham group: tended to decrease
[3]; among the all groups
  cancellous bone density (pQCT): no significant differences
[4]; 1 mg/kg i.p. 3 times
  serum ALP concentration: no changes
  serum Ca concentration vs control: no changes
  serum TRAP-5b concentration, fold as high as PBS group: 1.8 fold
[4]; 1.0 mm
  femur bone density decrease vs control: approximately 20%
[4]; 1.2 mm
  femur bone density decrease vs control: approximately 20%
[4]; 1.4 mm
  femur bone density decrease vs control: approximately 22%
[5]
  cortical bone density in the diaphysis, decrease vs PBS control: 3%
[6]; 12-week-old female
  total bone density decrease (DEXA) vs control: 6%
[6]; 12-week-old female, no significant difference
  serum ALP concentration vs PBS group: tended to increase
[6]; 12-week-old female, p<0.01
  serum TRAP-5b concentration vs PBS group: significantly increased
[6]; 12-week-old female, p<0.05
  serum Ca concentration vs PBS group: significantly increased
[6]; 12-week-old male
  total bone density decrease (DEXA) vs control: 8%
[6]; 12-week-old male, 1 mg/kg i.p. 3 times, p<0.05
  serum TRAP-5b concentration vs PBS group: significantly increased
[6]; [10]
  serum ALP concentration vs PBS group: tended to increase
  serum Ca concentration vs PBS group: tended to increase
[7]; 2 mg/kg/day 7 days, 0.6 mm
  femur bone density decrease vs control: approximately 21%
[7]; 2 mg/kg/day 7 days, 0.8 mm
  femur bone density decrease vs control: approximately 32%
[7]; 2 mg/kg/day 7 days, 1.0 mm
  femur bone density decrease vs control: approximately 47%
[7]; 2 mg/kg/day 7 days, no significant difference
  serum TRAP-5b concentration increase: approximately 30%
[7]; 2 mg/kg/day 7 days, p<0.02
  serum ALP concentration increase: approximately 30%
[7]; 2 mg/kg/day i.p. 7 consecutive days, no significant difference
  serum Ca concentration increase: approximately 20%
